Here are results for 30 compounds from US9029384B2, “Phosphatidylinositol 3-kinase inhibitors” (Gilead Calistoga LLC, priority 2012, dated 2015).

Each structure is given as a SMILES string. Read-outs that look alike come from different tables or passages of the source.

For data set [1], the target named is T1, PI3Kδ (Homo sapiens, UniProt O00329).
T1 construct: made in house
Description: Enzymatic activity of PI3K isoforms, TR-FRET assay (PIP3 formation). In kind it is biochemical. The following applies: read-out: IC50. The text has this: Enzymatic Activity of PI3K Isoforms
The TR-FRET assay was used to monitor formation of the product 3,4,5-inositol triphosphate molecule (PIP3) as it competed with fluorescently labeled PIP3 for binding to the GRP-1 pleckstrin homology domain protein. An increase in […] product results in a decrease in TR-FRET signal as the labeled fluorophore is displaced from the GRP-1 protein binding site.
Class I PI3K isoforms were expressed and purified as heterodimeric recombinant proteins. All assay reagents and buffers for the TR-FRET assay were purchased from Millipore. […] After an assay reaction time of 30 minutes at 25° C., reactions were terminated with a final concentration of 10 mM EDTA, 10 nM labeled-PIP3, and 35 nM Europium labeled GRP-1 detector protein before reading TR-FRET on an Envision plate reader (Ex: 340 nm; Em: 615/665 nm; 100 μs delay and 500 μs read window).
Data are normalized based on a positive (1 uM wortmanin) and negative (DMSO) controls. The α, β, δ, and γ IC50 values were calculated from the fit of the dose-response curves to a four-parameter equation. IC50 are reported in units of nM.
IC50 values were obtained for all PI3K isoforms (α, β, δ, and γ), and Table 2 summarizes the IC50 data collected for PI3Kδ in this Example B1.

In data set [2] the test system is basophils. The data set can be described thus: Basophil activation in human whole blood (Flow2 CAST kit, CD63 positive cells). In kind it is cell-based. Here is the method:
Effect on basophil activation was measured in human whole blood using the Flow2 CAST® kit (Buhlmann Laboratories AG, Baselstrasse, Switzerland) following the protocol provided by the manufacturer with minor modifications. Human whole blood was collected into K2-EDTA venipuncture tubes. Whole blood samples were treated with either DMSO (0.3% final) or a serial dilution of compounds in DMSO for 60 minutes at 37° C. Basophils were then activated either with anti-FcεRI mAb or with fMLP. To activate basophils using the anti-FcεRI mAb; 50 μl of whole blood was mixed with 110 μl of stimulation buffer (B-BAT-STB) and 20 μl of anti-FcεRI (B-BAT-STCON). To activate basophils with fMLP; 50 μl of whole blood was mixed with 80 μl of stimulation buffer (B-BAT-STB) and 50 μl of fMLP (B-CCR-FMLP). Stimulation buffer was used as a negative control. 20 μl of the staining reagent (combination of anti-human CD63-FITC and anti-human CCR3-PE mAbs) was then added to each tube. […] Subsequently, erythrocytes were lysed and fixed by the addition of 2 ml of lysing solution (B-BAT-LYR) for 10 min at room temperature. Cells were pelleted by centrifugation at 1200 rpm for 10 min at room temperature in a swing-out rotor. Supernatant was aspirated and cell pellet resuspended in 400 μl of wash buffer. Flow cytometric analysis of the basophil activation was performed on a FC500MPL flow cytometer (Beckman Coulter Inc., Fullerton, Calif.). CCR3-staining and side scatter were applied to gate at least 200 basophils that expressed a high density of CCR3. The percent CD63 positive cells within the gated basophil population were determined in different treatment groups and normalized to the vehicle control (0.3% DMSO) with anti-FcεRI mAb of fMLP stimulus as 100%. Final compound concentration was adjusted to correct for dilution effect of added reagents. The EC50 values were calculated from the analysis of the dose-response curves to a four-parameter equation. All EC50 values represent geometric mean values and are reported in units of nM.

Data set [3] in a line: Hepatocyte stability, 0.01% final DMSO, 1 μM substrate (t1/2^b). The note with it: human, hepatocytes, TA with 0.01% final DMSO; human hepatocytes; read-out: t1/2^b. The format is in vitro ADME. Here is the method: Alternatively, assay reagents and/or conditions can be modified in determining the inhibitory activities to PI3K isomers. In additional studies, similar assay using TA and 0.01% final DMSO concentration were incubated with 1 million hepatocytes/mL at 1 μM substrate in duplicate. The incubation was carried out at 37° C. with 5% CO2 and saturating humidity.

The mark [4] stands for this setting: PI3Kδ, TR-FRET, 2×Km ATP, 10 μM PIP2.
Where [5] appears, read: Homo sapiens, basophils activated with anti-FcεRI mAb or fMLP, geometric mean.
Where [6] appears, read: basophils activated with anti-FcεRI mAb or fMLP, geometric mean.

T1 sequence (O00329 whole entry): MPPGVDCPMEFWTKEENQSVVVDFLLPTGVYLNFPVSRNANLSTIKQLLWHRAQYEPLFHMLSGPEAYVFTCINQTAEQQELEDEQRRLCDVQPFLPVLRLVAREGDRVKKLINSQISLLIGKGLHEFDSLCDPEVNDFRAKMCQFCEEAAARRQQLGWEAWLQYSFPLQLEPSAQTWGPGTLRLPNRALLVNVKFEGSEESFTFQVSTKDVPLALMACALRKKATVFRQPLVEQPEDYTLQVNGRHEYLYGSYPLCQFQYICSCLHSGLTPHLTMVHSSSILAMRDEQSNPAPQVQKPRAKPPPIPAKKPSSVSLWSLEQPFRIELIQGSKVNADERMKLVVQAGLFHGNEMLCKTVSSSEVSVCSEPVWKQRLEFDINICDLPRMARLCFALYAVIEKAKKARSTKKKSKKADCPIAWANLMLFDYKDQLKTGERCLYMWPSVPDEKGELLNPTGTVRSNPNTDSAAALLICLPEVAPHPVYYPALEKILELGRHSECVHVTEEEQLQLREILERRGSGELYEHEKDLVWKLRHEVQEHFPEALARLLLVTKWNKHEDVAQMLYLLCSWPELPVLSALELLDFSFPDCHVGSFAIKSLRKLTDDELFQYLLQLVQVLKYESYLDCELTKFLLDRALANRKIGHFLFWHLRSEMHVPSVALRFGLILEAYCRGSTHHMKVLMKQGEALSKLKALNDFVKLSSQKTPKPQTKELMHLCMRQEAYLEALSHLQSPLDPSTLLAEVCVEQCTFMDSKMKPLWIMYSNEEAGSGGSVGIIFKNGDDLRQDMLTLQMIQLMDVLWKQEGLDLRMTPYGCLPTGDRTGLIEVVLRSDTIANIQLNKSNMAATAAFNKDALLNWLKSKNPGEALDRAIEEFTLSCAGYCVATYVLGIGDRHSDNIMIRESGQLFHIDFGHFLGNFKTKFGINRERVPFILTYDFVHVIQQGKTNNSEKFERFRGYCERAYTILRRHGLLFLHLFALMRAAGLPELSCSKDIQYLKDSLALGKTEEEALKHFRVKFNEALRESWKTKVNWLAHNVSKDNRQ
T1 sequence (P27986 whole entry partner): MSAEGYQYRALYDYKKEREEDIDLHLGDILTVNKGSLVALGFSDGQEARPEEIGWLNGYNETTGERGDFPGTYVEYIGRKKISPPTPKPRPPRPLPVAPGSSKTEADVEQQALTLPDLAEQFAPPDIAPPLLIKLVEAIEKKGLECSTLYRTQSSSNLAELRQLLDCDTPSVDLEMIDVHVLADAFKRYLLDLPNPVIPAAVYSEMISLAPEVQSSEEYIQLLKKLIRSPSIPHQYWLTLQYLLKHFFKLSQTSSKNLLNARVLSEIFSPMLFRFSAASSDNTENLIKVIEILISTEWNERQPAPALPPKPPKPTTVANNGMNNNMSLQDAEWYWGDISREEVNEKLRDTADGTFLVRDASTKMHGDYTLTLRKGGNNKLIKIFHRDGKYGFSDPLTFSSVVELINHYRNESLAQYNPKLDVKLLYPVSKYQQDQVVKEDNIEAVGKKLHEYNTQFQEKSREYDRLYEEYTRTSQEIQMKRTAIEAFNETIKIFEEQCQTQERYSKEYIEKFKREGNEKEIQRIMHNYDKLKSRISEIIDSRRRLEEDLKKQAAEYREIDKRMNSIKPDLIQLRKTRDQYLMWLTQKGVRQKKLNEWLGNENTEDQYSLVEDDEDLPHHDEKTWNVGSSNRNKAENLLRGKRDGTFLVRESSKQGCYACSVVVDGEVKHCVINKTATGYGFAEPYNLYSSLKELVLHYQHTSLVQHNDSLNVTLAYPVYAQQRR

Regarding `COc1cccc2c(=O)n(-c3ccccc3)c(C(C)Nc3nc(N)nc(N)c3C#N)nc12` (single isomer, unassigned) [Compound 156a], the IC50 in data set [1] (setting [4]) was above 50 nM. Further, the EC50 in data set [2] (setting [5]) lay in the range of 10 to 50 nM.
As for `CC(Nc1nc(N)nc(N)c1C#N)c1nc2c(C#N)cc(F)cc2c(=O)n1-c1cc(F)cc(F)c1` (single isomer, unassigned) [Compound 161a], the IC50 in data set [1] (setting [4]) is 10 to 50 nM. Besides, in data set [2] (setting [5]), the EC50 fell in the range of 10 to 50 nM.
For `CC(C)CC(Nc1nc(N)nc(N)c1C#N)c1nc2cccc(Cl)c2c(=O)n1-c1cccc(C#N)c1` (single isomer, unassigned) [Compound 167a], the IC50 in data set [1] (setting [4]) is 10 to 50 nM. Besides, in data set [2] (setting [5]), the EC50 is above 50 nM.
As for `CC(C)CC(Nc1nc(N)nc(N)c1C#N)c1nc2cccc(Cl)c2c(=O)n1-c1cccc(F)c1` (single isomer, unassigned) [Compound 168a], the IC50 in data set [1] (setting [4]) was 1 to 10 nM. Further, the EC50 in data set [2] (setting [5]) was above 50 nM.
With `COc1cc(-n2c(C(C)Nc3nc(N)nc(N)c3C#N)nc3cccc(Cl)c3c2=O)ccc1C` (single isomer, unassigned) [Compound 184a], the IC50 in data set [1] (setting [4]) fell in the range of 10 to 50 nM. In addition, the EC50 in data set [2] (setting [5]) is above 50 nM.
For the compound `COc1cc(-n2c(C(C)Nc3nc(N)nc(N)c3C#N)nc3cccc(Cl)c3c2=O)ccc1F` (single isomer, unassigned) [Compound 186a], the IC50 in data set [1] (setting [4]) was in the range of 1 to 10 nM. For the same compound, in data set [2] (setting [5]), the EC50 lay in the range of 10 to 50 nM.
Regarding `COc1ccc(C)c(-n2c(C(C)Nc3nc(N)nc(N)c3C#N)nc3cccc(Cl)c3c2=O)c1` (single isomer, unassigned) [Compound 187a-1], the IC50 in data set [1] (setting [4]) lay within 1 to 10 nM. Besides, the EC50 in data set [2] (setting [6]) fell in the range of 10 to 50 nM.
For `COc1ccc(C)c(-n2c(C(C)Nc3nc(N)nc(N)c3C#N)nc3cccc(Cl)c3c2=O)c1` (single isomer, unassigned) [Compound 187a-2], in that order: 1 to 10 nM and 1 to 10 nM.
`Cc1ccc(C(F)F)cc1-n1c(C(C)Nc2nc(N)nc(N)c2C#N)nc2cccc(Cl)c2c1=O` (single isomer, unassigned) [Compound 188a-1]: the IC50 in data set [1] (setting [4]) was in the range of 1 to 10 nM. For the same compound, the EC50 in data set [2] (setting [6]) lay within 10 to 50 nM.
With `Cc1c(C(F)F)cccc1-n1c(C(C)Nc2nc(N)nc(N)c2C#N)nc2cccc(Cl)c2c1=O` (single isomer, unassigned) [Compound 189a-1], the IC50 in data set [1] (setting [4]) was in the range of 10 to 50 nM. Further, in data set [2] (setting [6]), the EC50 is above 50 nM.
Regarding `Cc1c(C(F)F)cccc1-n1c(C(C)Nc2nc(N)nc(N)c2C#N)nc2cccc(Cl)c2c1=O` (single isomer, unassigned) [Compound 189a-2], in data set [1] (setting [4]), the 50% inhibitory concentration (IC50) was below 1 nM. Besides, in data set [2] (setting [6]), the EC50 was in the range of 1 to 10 nM.
For `Cc1ccc(C)c(-n2c(C(C)Nc3nc(N)nc(N)c3C#N)nc3cccc(Cl)c3c2=O)c1` (single isomer, unassigned) [Compound 191a-1], in that order: 1 to 10 nM and 10 to 50 nM.
In the case of `Cc1ccc(C)c(-n2c(C(C)Nc3nc(N)nc(N)c3C#N)nc3cccc(Cl)c3c2=O)c1` (single isomer, unassigned) [Compound 191a-2], the concentration for half-maximal inhibition (IC50) in data set [1] (setting [4]) was 1 to 10 nM. In addition, the EC50 in data set [2] (setting [6]) lay within 1 to 10 nM.
As for `CC(Nc1nc(N)nc(N)c1F)c1nc2cccc(Cl)c2c(=O)n1-c1ccccc1` (single isomer, unassigned) [Compound 194a], the IC50 in data set [1] (setting [4]) is above 50 nM. Also, in data set [2] (setting [6]), the EC50 was above 50 nM.
As to `CC(Nc1nc(N)nc(N)c1Cl)c1cc2cccc(Cl)c2c(=O)n1-c1ccccc1` (single isomer, unassigned) [Compound 195a], the half-inhibitory concentration (IC50) in data set [1] is below 1 nM. Further, the EC50 in data set [2] (setting [6]) was in the range of 1 to 10 nM.
Take `CC(Nc1nc(N)nc(N)c1C#N)c1cc2cccc(Cl)c2c(=O)n1-c1ccccc1` (single isomer, unassigned) [Compound 196a]: the IC50 in data set [1] is below 1 nM. Also, the EC50 in data set [2] (setting [6]) was below 1 nM.
For the compound `CC(C)C(Nc1nc(N)nc(N)c1C#N)c1nc2cccc(Cl)c2c(=O)n1-c1cc(F)cc(F)c1` (single isomer, unassigned) [Compound 198a], the IC50 in data set [1] (setting [4]) lay within 1 to 10 nM. In addition, the EC50 in data set [2] (setting [5]) was 1 to 10 nM.
With `Cc1c(F)cccc1-n1c(C(C)Nc2nc(N)nc(N)c2C#N)nc2cccc(Cl)c2c1=O` (single isomer, unassigned) [Compound 199a-1], the IC50 in data set [1] (setting [4]) was below 1 nM. Moreover, in data set [2] (setting [6]), the EC50 was below 1 nM.
In the case of `Cc1c(F)cccc1-n1c(C(C)Nc2nc(N)nc(N)c2C#N)nc2cccc(Cl)c2c1=O` (single isomer, unassigned) [Compound 199a-2], the IC50 in data set [1] (setting [4]) lay within 1 to 10 nM. The EC50 in data set [2] (setting [6]) is above 50 nM.
As to `Cc1c(F)cc(F)cc1-n1c(C(C)Nc2nc(N)nc(N)c2C#N)nc2cccc(Cl)c2c1=O` (single isomer, unassigned) [Compound 200a-1], in data set [1] (setting [4]), the IC50 was 10 to 50 nM. In addition, the concentration for a half-maximal effect (EC50) in data set [2] (setting [6]) was 10 to 50 nM.
Take `Cc1c(F)cc(F)cc1-n1c(C(C)Nc2nc(N)nc(N)c2C#N)nc2cccc(Cl)c2c1=O` (single isomer, unassigned) [Compound 200a-2]: the IC50 in data set [1] (setting [4]) lay within 10 to 50 nM. In addition, the 50% effective concentration (EC50) in data set [2] (setting [6]) lay within 1 to 10 nM.
On to `Cc1ccc(F)cc1-n1c(C(C)Nc2nc(N)nc(N)c2C#N)nc2cccc(Cl)c2c1=O` (single isomer, unassigned) [Compound 201a-1], for which the IC50 in data set [1] (setting [4]) was below 1 nM. In data set [2] (setting [5]), the EC50 was below 1 nM.
Regarding `Cc1cccc(-n2c(C(C)Nc3nc(N)nc(N)c3C#N)nc3cccc(Cl)c3c2=O)c1C` (single isomer, unassigned) [Compound 202a-1], the IC50 in data set [1] (setting [4]) is below 1 nM. In data set [2] (setting [6]), the EC50 was 1 to 10 nM.
For `Cc1cccc(-n2c(C(C)Nc3nc(N)nc(N)c3C#N)nc3cccc(Cl)c3c2=O)c1C` (single isomer, unassigned) [Compound 202a-2], in that order: 10 to 50 nM and above 50 nM.
Regarding `Cc1c(F)ccc(-n2c(C(C)Nc3nc(N)nc(N)c3C#N)nc3cccc(Cl)c3c2=O)c1C` (single isomer, unassigned) [Compound 203a-1], the IC50 in data set [1] (setting [4]) was in the range of 1 to 10 nM. Also, in data set [2] (setting [6]), the EC50 is above 50 nM.
`Cc1c(F)ccc(-n2c(C(C)Nc3nc(N)nc(N)c3C#N)nc3cccc(Cl)c3c2=O)c1C` (single isomer, unassigned) [Compound 203a-2]: in data set [1] (setting [4]), the IC50 was above 50 nM. The EC50 in data set [2] (setting [6]) lay within 10 to 50 nM.
For `COc1cc(F)cc(-n2c(C(C)Nc3nc(N)nc(N)c3C#N)nc3cccc(Cl)c3c2=O)c1` (single isomer, unassigned) [Compound 205a], in that order: 1 to 10 nM and below 1 nM.
As to `COc1cccc(-n2c(C(C)Nc3nc(N)nc(N)c3C#N)nc3cccc(Cl)c3c2=O)c1` (single isomer, unassigned) [Compound 206a], the IC50 in data set [1] (setting [4]) was below 1 nM. For the same compound, the EC50 in data set [2] (setting [6]) is below 1 nM.
As for `CC[C@H](C)[C@H](Nc1nc(N)nc(N)c1C#N)c1nc2cccc(Cl)c2c(=O)n1-c1cc(F)cc(F)c1` [Compound 164a, 2,4-diamino-6-(((1S,2S)-1-(5-chloro-3-(3,5-difluorophenyl)-4-oxo-3,4-dihydroquinazolin-2-yl)-2-methylbutyl)amino)pyrimidine-5-carbonitrile], the half-maximal inhibitory concentration (IC50) in data set [1] (setting [4]) is 1 to 10 nM. Moreover, in data set [2] (setting [5]), the EC50 is above 50 nM.
Regarding `C[C@H](Nc1ncnc(N)c1C#N)c1nc2cccc(F)c2c(=O)n1-c1cccc(F)c1` [Compound V, reference compound], the EC50 in data set [2] (Homo sapiens, basophil activation) was above 4 nM. The half-life at 1 μM in data set [3] was below 1 h.

The IC50 is the concentration that inhibits the measured activity by half. As a reminder, the EC50 is the concentration that produces a half-maximal response.
